The results in this text go back to PubChem BioAssay (NCI).

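Interpolation was linear, between the two tested concentrations surrounding the appropriate level; five concentrations were tested over 48 hours in 96-well plates. At the GI50, growth is halved. TGI marks complete inhibition of growth.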

Among the test systems are BT-549 breast; CAKI-1 renal; HL-60(TB) leukemia; HS 578T breast; NCI/ADR-RES ovarian; OVCAR-4 ovarian; T-47D breast; UO-31 renal.
Experiment in all cases: NCI anticancer screen, dose series, 48 h

`O=S(=O)(Nc1ccc(Cl)c(Cl)c1)c1ccc(-c2cnc(C3CC3)o2)cc1`: the GI50 with BT-549 breast is 0.911 µM; in the test on CAKI-1 renal, 0.384 µM; in the test on HL-60(TB) leukemia, 0.274 µM; in the test with HS 578T breast, 0.455 µM; with NCI/ADR-RES ovarian, 0.345 µM; in the test with OVCAR-4 ovarian, 1.16 µM. Also, the GI50 with T-47D breast was 0.349 µM; in the test with UO-31 renal, 0.498 µM. The TGI with BT-549 breast is 18.2 µM; in the test with CAKI-1 renal, 16.7 µM; with HL-60(TB) leukemia, 3.47 µM; in the test on HS 578T breast, 30.7 µM; in the test with NCI/ADR-RES ovarian it was 4.91 µM; with OVCAR-4 ovarian it was 20.6 µM. Also, the TGI stood at 18.6 µM with T-47D breast and 15.9 µM with UO-31 renal.

Turning to `Cc1c(C2CCSc3ccccc3N2)sc2ccccc12` (stereo unspecified), the TGI in the test with BT-549 breast, in the test with CAKI-1 renal, in the test with HL-60(TB) leukemia, in the test on HS 578T breast, with NCI/ADR-RES ovarian and in the test on OVCAR-4 ovarian was greater than 100 µM in each case. The TGI in the test on T-47D breast and with UO-31 renal was greater than 100 µM each time.

Regarding `N/C(CC(=O)NOC(=O)c1ccccc1)=N/OC(=O)c1ccccc1`, the TGI in the test on BT-549 breast is 77.6 µM; with CAKI-1 renal, greater than 100 µM; in the test on HL-60(TB) leukemia, greater than 100 µM; in the test with HS 578T breast, greater than 100 µM; with NCI/ADR-RES ovarian, greater than 100 µM; in the test on OVCAR-4 ovarian, 75 µM. Further, the TGI was greater than 100 µM in the test on T-47D breast and 53.9 µM in the test with UO-31 renal.

Consider `CCOC(=O)N(O)c1ccc(/C=C/c2ccccc2)cc1`, for which the GI50 with BT-549 breast is 9.38 µM; in the test with CAKI-1 renal it was 2.7 µM; in the test with HL-60(TB) leukemia, 8.59 µM; in the test with HS 578T breast, 29.4 µM; in the test with NCI/ADR-RES ovarian, 13 µM; in the test with OVCAR-4 ovarian, 7.21 µM. For the same compound, the GI50 was 0.452 µM with T-47D breast and 6.03 µM with UO-31 renal. Also, the TGI is 40 µM with BT-549 breast; 21.4 µM in the test with CAKI-1 renal; 40.5 µM in the test on HL-60(TB) leukemia; greater than 100 µM in the test with HS 578T breast; 88.6 µM with NCI/ADR-RES ovarian; greater than 84.2 µM with OVCAR-4 ovarian. Moreover, the TGI with T-47D breast was 8.81 µM; in the test with UO-31 renal it was 36.4 µM.

Regarding `Cc1cn2cc(-c3ccc4c(c3)CC(=O)N4)nc2s1`, the GI50 in the test with BT-549 breast, with CAKI-1 renal, in the test with HL-60(TB) leukemia, with HS 578T breast, with NCI/ADR-RES ovarian and in the test with OVCAR-4 ovarian was greater than 100 µM throughout. Also, the values for the GI50 in the test on T-47D breast and in the test on UO-31 renal were 43.4 µM and greater than 100 µM, respectively. For the same compound, the TGI in the test on BT-549 breast, in the test with CAKI-1 renal, in the test on HL-60(TB) leukemia, in the test on HS 578T breast, in the test with NCI/ADR-RES ovarian and in the test with OVCAR-4 ovarian was greater than 100 µM throughout. The TGI in the test on T-47D breast and in the test on UO-31 renal was greater than 100 µM throughout.

`O=C(N/N=C/c1ccc(N(CCCl)CCCl)cc1)c1ccc(C(=O)N/N=C/c2ccc(N(CCCl)CCCl)cc2)cc1`: the GI50 in the test with BT-549 breast was 2.34 µM; in the test with CAKI-1 renal, 72.3 µM; in the test on HS 578T breast it was 3.54 µM; in the test on NCI/ADR-RES ovarian, greater than 100 µM; in the test on OVCAR-4 ovarian it was 47.9 µM; in the test with T-47D breast it was 5.54 µM. The GI50 with UO-31 renal is greater than 100 µM. Besides, the TGI in the test with BT-549 breast is 76.5 µM; in the test on CAKI-1 renal, greater than 100 µM; in the test with HL-60(TB) leukemia, greater than 100 µM; in the test with HS 578T breast, greater than 100 µM; in the test on NCI/ADR-RES ovarian it was greater than 100 µM; in the test on OVCAR-4 ovarian, greater than 100 µM. In addition, the TGI in the test on T-47D breast and in the test on UO-31 renal was greater than 100 µM each time.

For `N=C1C=C(N)C(=O)c2ccccc21`, the GI50 is 0.452 µM in the test with BT-549 breast; 0.187 µM in the test with CAKI-1 renal; 0.207 µM with HL-60(TB) leukemia; 0.353 µM in the test with HS 578T breast; 0.296 µM in the test with NCI/ADR-RES ovarian; 0.103 µM with OVCAR-4 ovarian. Moreover, the GI50 with T-47D breast is 0.261 µM; in the test on UO-31 renal, 0.153 µM. Besides, the TGI with BT-549 breast was found to be 0.929 µM; with CAKI-1 renal, 0.379 µM; with HL-60(TB) leukemia, 0.606 µM; in the test on NCI/ADR-RES ovarian it was 1.01 µM; in the test on OVCAR-4 ovarian it was 0.243 µM; with T-47D breast, 0.671 µM. The TGI in the test on UO-31 renal stood at 0.32 µM.

Turning to `C[C@H]1CC[C@@H]2[C@@H](C)[C@H]3[C@H](C[C@H]4[C@@H]5CC=C6C[C@@H](O)CC[C@]6(C)[C@H]5CC[C@]34C)N2C1`, the TGI is greater than 100 µM with BT-549 breast; greater than 100 µM with CAKI-1 renal; 54 µM in the test on HL-60(TB) leukemia; 97.9 µM in the test with HS 578T breast; greater than 100 µM with NCI/ADR-RES ovarian; greater than 100 µM in the test on OVCAR-4 ovarian. Further, the TGI in the test with T-47D breast and with UO-31 renal was greater than 100 µM throughout.

On to `C[C@@H](C[C@H](CCO)c1ccccc1)c1ccc2ccccc2c1`, for which the GI50 in the test with BT-549 breast was 1.68 µM; in the test with CAKI-1 renal, 1.28 µM; in the test on HL-60(TB) leukemia it was 1.91 µM; in the test on HS 578T breast it was 1.69 µM; with NCI/ADR-RES ovarian, 1.66 µM; in the test with OVCAR-4 ovarian it was 1.51 µM. For the same compound, the figures for the GI50 in the test on T-47D breast and with UO-31 renal were 1.44 µM and 1.54 µM, respectively. The TGI in the test with BT-549 breast came to 3.1 µM; in the test with CAKI-1 renal, 2.54 µM; in the test on HL-60(TB) leukemia, 4 µM; in the test with HS 578T breast, 3.84 µM; in the test with NCI/ADR-RES ovarian it was 3.4 µM; in the test on OVCAR-4 ovarian it was 2.88 µM. Moreover, the TGI in the test on T-47D breast is 3.11 µM; in the test with UO-31 renal it was 2.88 µM.

As for `C1CC[N-]CC1.CC(=N\O)/C(C)=N/O.CC(=N\O)/C(C)=N/O.C[CH-]C(C)O.[Co+2]`, the GI50 in the test on BT-549 breast is 28.5 µM; in the test with CAKI-1 renal, 24 µM; with HL-60(TB) leukemia, 14.5 µM; in the test with HS 578T breast it was 28 µM; with NCI/ADR-RES ovarian, 54.2 µM; in the test with OVCAR-4 ovarian, 33.1 µM. In addition, the GI50 in the test with T-47D breast is 12.6 µM; with UO-31 renal, 42.9 µM. Moreover, the TGI in the test with BT-549 breast was 79.7 µM; in the test with CAKI-1 renal, 57.8 µM; in the test with HL-60(TB) leukemia, 45.7 µM; in the test on HS 578T breast it was 83.1 µM; in the test on NCI/ADR-RES ovarian, greater than 100 µM; in the test with OVCAR-4 ovarian, greater than 100 µM. For the same compound, the TGI in the test with T-47D breast is 41.1 µM; with UO-31 renal it was greater than 100 µM.

As for `CC1/C(=N/O)CC(c2ccccc2)N(N=O)C1c1ccccc1` (stereo unspecified), the TGI in the test on BT-549 breast, in the test on CAKI-1 renal, in the test on HL-60(TB) leukemia, with HS 578T breast, with NCI/ADR-RES ovarian and in the test with OVCAR-4 ovarian was greater than 100 µM each time. In addition, the TGI in the test on T-47D breast and with UO-31 renal was greater than 100 µM throughout.

With `Cn1cccc1-c1cc(-c2ccccc2)nc(N)c1C#N`, the GI50 in the test on BT-549 breast was 67.5 µM; in the test with CAKI-1 renal, greater than 100 µM; in the test on HL-60(TB) leukemia, 0.761 µM; with HS 578T breast it was greater than 28.8 µM; in the test with NCI/ADR-RES ovarian it was greater than 100 µM; in the test on OVCAR-4 ovarian, greater than 68.6 µM. In addition, the GI50 in the test on T-47D breast and in the test with UO-31 renal was greater than 100 µM in each case. For the same compound, the TGI in the test with BT-549 breast, in the test with CAKI-1 renal, with HL-60(TB) leukemia, in the test on HS 578T breast, in the test with NCI/ADR-RES ovarian and in the test on OVCAR-4 ovarian was greater than 100 µM each time. Besides, the TGI with T-47D breast and in the test on UO-31 renal was greater than 100 µM in each case.

Turning to `CS(=O)(=O)CCNCc1ccoc1-c1ccc2ncnc(Nc3ccc(OCc4ccccc4)cc3)c2c1`, the GI50 in the test on BT-549 breast was greater than 25 µM; with CAKI-1 renal, 1.78 µM; in the test on HL-60(TB) leukemia it was 24.4 µM; in the test with HS 578T breast, 2.28 µM; in the test on NCI/ADR-RES ovarian, greater than 25 µM; in the test with OVCAR-4 ovarian it was greater than 25 µM. Moreover, the GI50 in the test on T-47D breast is 7.86 µM; in the test on UO-31 renal, 2.26 µM. For the same compound, the TGI in the test on BT-549 breast, with CAKI-1 renal, in the test on HL-60(TB) leukemia, in the test with HS 578T breast, in the test on NCI/ADR-RES ovarian and in the test on OVCAR-4 ovarian was greater than 25 µM each time. For the same compound, the TGI in the test with T-47D breast and in the test with UO-31 renal was greater than 25 µM in each case.

In the case of `CC1=C(SCCC(=O)OC(C[Se]C2=C(C)C(=O)c3ccccc3C2=O)C(=O)NC(C)(C)C)C(=O)c2ccccc2C1=O` (stereo unspecified), the GI50 is 1.64 µM in the test with BT-549 breast; 1.65 µM in the test on CAKI-1 renal; 0.68 µM with HL-60(TB) leukemia; 1.07 µM in the test with HS 578T breast; 0.701 µM in the test with NCI/ADR-RES ovarian; 1.45 µM in the test with OVCAR-4 ovarian. The figures for the GI50 with T-47D breast and in the test with UO-31 renal were 0.904 µM and 0.68 µM, respectively. Besides, the TGI in the test on BT-549 breast is 3.05 µM; in the test with CAKI-1 renal it was 3.36 µM; with HL-60(TB) leukemia, 2.39 µM; in the test with HS 578T breast it was 3.31 µM; in the test with NCI/ADR-RES ovarian, 1.98 µM; in the test with OVCAR-4 ovarian it was 2.76 µM. Further, the TGI with T-47D breast was 2.95 µM; in the test with UO-31 renal it was 2.15 µM.

On to `Cc1cc2nc(-c3ccc(O)c(O)c3)n(Cc3ccc(O)c(O)c3)c2cc1C`, for which the GI50 with BT-549 breast is 28.9 µM; in the test on CAKI-1 renal it was 17 µM; with HL-60(TB) leukemia, 9.33 µM; with HS 578T breast, 41.3 µM; in the test with NCI/ADR-RES ovarian, greater than 100 µM; with OVCAR-4 ovarian, 54.9 µM. Also, the GI50 is 31.8 µM with T-47D breast and 64.3 µM in the test on UO-31 renal. Besides, the TGI is greater than 100 µM in the test with BT-549 breast; 81.1 µM with CAKI-1 renal; 47.4 µM with HL-60(TB) leukemia; greater than 100 µM in the test on HS 578T breast; greater than 100 µM in the test on NCI/ADR-RES ovarian; greater than 100 µM in the test with OVCAR-4 ovarian. Further, the TGI with T-47D breast and in the test on UO-31 renal was greater than 100 µM in each case.
